Reference: patent US8686028B2, “Substituted benzfurochromenes and related compounds for the prevention and treatment of bone related disorders” (Council of Scientific & Industrial Research, priority 2008, dated 2014)

Columns and labels:
Calvarial osteoblasts = experiment: Alkaline phosphatase (ALP) activity for osteoblast differentiation, calvarial osteoblasts; format: cell-based, rat; conditions: osteoblasts, concentrations not given
Protocol: (§1) Neonatal rat calvarial cell cultures are prepared as described previously (Endocrinology 145:3451) using slight modification. Briefly, for primary osteoblast cell cultures, frontal and parietal bones from Sprague-Dawley rat neonates (1-3 day old) are digested in 0.1% collagenase/0.1% dispase in α-MEM to obtain 5 sequential digests. The second through fifth digests are combined and grown to confluence at 37° C. and 5% CO2 in air in α-MEM, supplemented with 10% fetal bovine serum (FBS), 2 mM glutamine, 100 U/ml penicillin-streptomycin, Non-essential amino acid solution and sodium pyruvate.
70 to 80% confluent Calvarial osteoblasts were treated with μM S006-1709 for 48 h in the presence of ascorbate and glycerophosphate. At the end of incubation period, total ALP activity was measured with a method using p-nitrophenylphosphate (PNPP) as substrate. The reaction mixture contained diethanolamine buffer (1 mol/L, pH 9.8), 0.5 mmol/L MgCl2.6H2O, and 10 mmol/L PNPP. ALP activity was measured by taking OD of the amount of colored product formed by the dephosphorylation of PNPP at 405 nm. […] In addition, the effect of S006-1709 on mineralization of calvarial osteoblasts was studied.
We then studied its effect in osteoblast differentiation in both calvarial and bone marrow osteoblasts. Confluent calvarial osteoblasts (70 to 80%) were treated with S006-1710 for 48 h in the presence of ascorbate and glycerophosphate at concentrations ranging from 10^−16M to 10^−6M. At the end of incubation period, total ALP activity was measured with the same method used previously using p-nitrophenylphosphate (PNPP) as substrate.
70 to 80% confluent Calvarial osteoblasts were treated with S007-1351 for 48 h in the presence of ascorbate and glycerophosphate. At the end of incubation period, total ALP activity was measured with a method using p-nitrophenylphosphate (PNPP) as substrate. The reaction mixture contained diethanolamine buffer (1 mol/L, pH 9.8), 0.5 mmol/L MgCl2.6H2O, and 10 mmol/L PNPP. ALP activity was measured by taking OD of the amount of colored product formed by the dephosphorylation of PNPP at 405 nm.
70 to 80% confluent calvarial osteoblasts were treated with S007-1352 for 48 h in the presence of ascorbate and glycerophosphate at concentrations ranging from 10^−12M to 10^−6 M. At the end of incubation period, total ALP activity was measured with the same method used previously using p-nitrophenylphosphate (PNPP) as substrate.

[1] = tested on: Calvarial osteoblast cells; experiment: MTT cell proliferation assay; format: cell-based, rat; conditions: 10^−10 M to 10^−6M, 24 hrs
Protocol: as §1
MTT [3-(4,5-dimethylthiazol-2-yl)-2,5-diphenyltetrazolium bromide] assay, first described by Mosmann in 1983, is based on the ability of a mitochondrial dehydrogenase enzyme from viable cells to cleave the tetrazolium rings of the pale yellow MTT and form a dark blue formazan crystals which is largely impermeable to cell membranes, thus resulting in its accumulation within healthy cells. Solubilisation of the cells by the addition of a detergent results in the liberation of the crystals which are solubilized. The number of surviving cells is directly proportional to the level of the formazan product created. The color can then be quantified using a simple colorimetric assay. The results can be read on a multiwell scanning spectrophotometer (Mosmann T. Rapid colorimetric assay for cellular growth and survival: application to proliferation and cytotoxicity assays. J Immunol Methods. 1983 Dec. 16; 65(1-2):55-63).
Calvarial osteoblast cells plated at a density of 2.0×10^3 cells/200 ul in 96 wells plates. Cells were grown to 60% confluency and then treated with following compounds S006-1709, S006-1710, 5006-1711, S006-1713 and; S006-1714 at concentrations ranging from 10^−10 M to 10^−6M for 24 hrs. After treatment media was removed and 10 mM MTT was added solution in phenol red free DMEM media. After an incubation of 4 hrs the MTT solution was removed. Blue colored crystals were formed which were dissolved in DMSO and absorbance was read on ELISA plate reader at 570 nm wavelength.

[2] = tested on: ovariectomized immature female rats; experiment: Estrogenicity, uterine fresh weight in ovariectomized immature female rats; format: in vivo, rat; conditions: reference standard, 0.01 mg/Kg, three consecutive days; vehicle 16.46
Protocol: 21 day old immature female rats (25-30 grams) were ovariectomized and given 7 days post-operative rest. Thereafter they were treated orally with the test agent (10 mg/Kg body weight) or with vehicle or Ethynyl estradiol, the reference standard for three consecutive days. For anti-estrogenicity, other than the test chemical, ethynyl estradiol (0.01 mg/kg) was given at 15 minutes interval before the test chemical. Autopsy was done 24 h after last treatment and uterine fresh weight was taken.

For COc1ccc(-c2coc3cc(O)ccc3c2=O)c(OC)c1 [Compound S006-1713, 3-(2,4-Dimethoxy-phenyl)-7-hydroxy-chromen-4-one], the “stimulation of ALP activity” value (Calvarial osteoblasts) was “non-significant” and the “effect on osteoblast proliferation (MTT)” value [1] was “did not have any effect”.
For COc1ccc(-c2coc3cc(O)ccc3c2=O)c(O)c1 [Compound S006-1714, 7-Hydroxy-3-(2-hydroxy-4-methoxy-phenyl)-chromen-4-one], the “stimulation of ALP activity” value (Calvarial osteoblasts) was “non-significant”, the melting point was 210 to 212 °C and the “effect on osteoblast proliferation (MTT)” value [1] was “did not have any effect”.
For O=c1c(-c2ccccc2O)coc2cc(O)c(Cl)cc12 [Compound S007-1354, 6-Chloro-7-hydroxy-3-(2-hydroxy-phenyl)-chromen-4-one], the “stimulation of ALP activity” value (Calvarial osteoblasts) was “non-significant” and the melting point was greater than 250 °C.
For COc1ccccc1-c1coc2cc(O)c(Cl)cc2c1=O [Compound S007-1355, 6-Chloro-7-hydroxy-3-(2-methoxy-phenyl)-chromen-4-one], the “stimulation of ALP activity” value (Calvarial osteoblasts) was “non-significant” and the melting point was 228 to 230 °C.
With Cc1c(O)ccc2c(=O)c(-c3ccccc3O)coc12 [Compound S007-1498, 7-Hydroxy-3-(2-hydroxy-phenyl)-8-methyl-chromen-4-one] the “stimulation of ALP activity” value (Calvarial osteoblasts) was “non-significant” and the melting point was 196 to 198 °C.
In the case of Cc1c(O)ccc2c1OCC1c3ccccc3OC21 (stereo not drawn) [Compound S007-1499, 4-Methyl-6a,11a-dihydro-6H-benzo[4,5]furo[3,2-c]chromen-3-ol], the “stimulation of ALP activity” value (Calvarial osteoblasts) is reported as “non-significant” and the melting point is reported as 160 to 162 °C.
For Cc1c(OCC#N)ccc2c1OCC1c3ccccc3OC21 (stereo not drawn) [Compound S007-1501, (4-Methyl-6a,11a-dihydro-6H-benzo[4,5]furo[3,2-e]chromen-3-yloxy)-acetonitrile], the “stimulation of ALP activity” value (Calvarial osteoblasts) was “non-significant”.
With CC(C)Oc1ccc2c(c1)OCC1c3ccccc3OC21 (stereo not drawn) [Compound S-008-0398, 3-Isopropoxy-6a,11a-dihydro-6H-benzofuro[3,2-c]chromene] the melting point was 96 to 98 °C.
For c1ccc2c(c1)OC1c3ccc(OCCN4CCCCC4)cc3OCC21 (stereo not drawn) [Compound S-008-0399, 1-(2-(6a,11a-Dihydro-6H-benzofuro[3,2-c]chromen-3-yloxy)ethyl)piperidine], the melting point was 202 to 204 °C.
Compound C=CCOc1ccc2c(c1)OCC1c3ccccc3OC21 (stereo not drawn) [Compound S-008-0625, 3-(Allyloxy)-6a,11a-dihydro-6H-benzofuro[3,2-c]chromene] has a melting point of 72 to 74 °C.
With C#C[C@]1(O)CC[C@H]2[C@@H]3CCc4cc(O)ccc4[C@H]3CC[C@@]21C [Ethnyl Estradiol, Ethynyl estradiol, reference compound] the “Estrogenic Activity (uterine fresh weight)” value [2] was 98.3.
